Earlier results, collected in patent US20230128032A1, “Early Drug Interventions to Reduce COVID-19 Related Respiratory Distress, Need for Respirator Assist and Death” (Curtails LLC, priority 2020, published 2023).
Bridges are numbered along the chain shown (N, C = ends). Where no end group is shown, it is not given here.

Key:
[1] = tested on: intensive care patients without heart disease
mice = conditions: ANP pretreatment
isolated perfused lung = conditions: increased capillary pressure, hypoxia or inflammatory stimuli such as detergents or prostaglandins
[2] = tested on: patients with acute lung injury; conditions: intravenous infusion, mechanical ventilation with positive end-expiratory pressure
[3] = tested on: patients with pulmonary arterial hypertension; conditions: racecadotril treatment

Compound | pulmonary oedema [1] | pulmonary oedema induced by lung ischaemia-reperfusion injury (rodents) | lung injury, inflammation and endothelial barrier dysfunction induced by gram-negative bacterial wall LPS or Staphylococcus Aureus infection (mice) | anti-oedematic action in isolated perfused lung (isolated perfused lung) | lung injury score [2] | pulmonary gas exchange [2] | pulmonary oedema induced by congestive heart failure (dogs) | increase in plasma cGMP levels [3] [%] | increase in the plasma ANP concentration [3] [%] | reduction in pulmonary vascular resistance [3] [%]
ANP: synthetic form of the GC-A agonist peptide atrial natriuretic peptide (SLRRSSCFGGRMDRIGAQSGLGCNSFRY; disulfide 7-23; ends not checked; UniProt P01160 124-151, looked up) | diminished | attenuated | protected | direct anti-oedematic action | improved | improved | attenuated | – | – | –
CC(=O)SCC(Cc1ccccc1)C(=O)NCC(=O)OCc1ccccc1 (stereo not shown) [racecadotril] | – | – | – | – | – | – | – | 106 | 79 | 14
